Source: patent US9199999B2, “Substituted imidazopyrazines” (Bayer Intellectual Property GmbH, priority 2010, dated 2015)

Each compound was assayed against human kinase Mps-1 (Homo sapiens (Human), UniProt P33981). Conditions: read-out: Mps-1 IC50; N-terminally GST-tagged human full length recombinant Mps-1; 10 μM ATP; 1 μM biotinylated peptide substrate; 60 min at 22° C.
Chain of human kinase Mps-1 (P33981 whole entry): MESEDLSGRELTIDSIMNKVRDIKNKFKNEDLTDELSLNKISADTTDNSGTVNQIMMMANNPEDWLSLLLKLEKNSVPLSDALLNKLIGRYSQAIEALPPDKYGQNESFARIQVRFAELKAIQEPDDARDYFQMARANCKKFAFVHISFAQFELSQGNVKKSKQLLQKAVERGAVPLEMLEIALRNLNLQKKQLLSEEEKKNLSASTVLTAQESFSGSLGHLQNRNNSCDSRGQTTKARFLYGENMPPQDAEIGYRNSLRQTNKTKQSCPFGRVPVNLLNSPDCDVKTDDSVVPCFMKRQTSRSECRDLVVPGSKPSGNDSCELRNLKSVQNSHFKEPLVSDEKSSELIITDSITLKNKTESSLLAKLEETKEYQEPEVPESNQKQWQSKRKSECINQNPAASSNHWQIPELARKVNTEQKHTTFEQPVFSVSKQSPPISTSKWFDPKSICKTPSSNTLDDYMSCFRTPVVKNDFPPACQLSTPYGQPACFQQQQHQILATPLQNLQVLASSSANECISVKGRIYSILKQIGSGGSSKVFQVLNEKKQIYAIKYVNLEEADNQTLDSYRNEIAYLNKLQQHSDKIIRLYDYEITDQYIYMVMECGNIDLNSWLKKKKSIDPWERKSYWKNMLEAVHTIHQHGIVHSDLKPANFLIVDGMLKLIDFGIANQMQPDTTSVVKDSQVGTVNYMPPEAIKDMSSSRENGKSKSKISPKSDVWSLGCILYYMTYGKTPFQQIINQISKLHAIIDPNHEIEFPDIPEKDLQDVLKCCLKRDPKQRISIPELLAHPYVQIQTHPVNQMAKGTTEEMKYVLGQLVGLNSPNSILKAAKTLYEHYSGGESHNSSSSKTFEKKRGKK

**Q.** Which IC50 does the source give for `O=C(NC1CC1)c1ccc(-c2cnc3c(NCCCO)nc(C#CCO)cn23)cc1` [Example 1, N-cyclopropyl-4-{8-[(3-hydroxypropyl)amino]-6-(3-hydroxyprop-1-yn-1-yl)imidazo[1,2-a]pyrazin-3-yl}benzamide] here?
**A.** The IC50 was 31 nM.

**Q.** With `CC(C)CNc1nc(C#Cc2ccccc2)cn2c(-c3ccc(S(=O)(=O)NC4CC4)cc3)cnc12` [Example 2, N-cyclopropyl-4-[8-(isobutylamino)-6-(phenylethynyl)imidazo[1,2-a]pyrazin-3-yl]benzenesulfonamide] as the compound, how does the IC50 read?
**A.** Its IC50 is 20000 nM.

**Q.** For `CC(C)CNc1nc(C#Cc2ccccc2F)cn2c(-c3ccc(S(=O)(=O)NC4CC4)cc3)cnc12` [Example 3, N-cyclopropyl-4-{6-[(2-fluorophenyl)ethynyl]-8-(isobutylamino)imidazo[1,2-a]pyrazin-3-yl}benzenesulfonamide], which IC50 is on record?
**A.** The IC50 was 20000 nM.

**Q.** With `CC(C)CNc1nc(C#CCO)cn2c(-c3ccc(S(=O)(=O)NC4CC4)cc3)cnc12` [Example 4, N-cyclopropyl-4-[6-(3-hydroxyprop-1-yn-1-yl)-8-(isobutylamino)imidazo[1,2-a]pyrazin-3-yl]benzenesulfonamide] as the compound, how does the IC50 read?
**A.** The IC50 was 1840 nM.

**Q.** How did the IC50 turn out when `CC(C)(O)C#Cc1cn2c(-c3ccc(C(=O)NC4CC4)cc3)cnc2c(NCCCCO)n1` [Example 8, N-cyclopropyl-4-{8-[(4-hydroxybutyl)amino]-6-(3-hydroxy-3-methylbut-1-yn-1-yl)imidazo[1,2-a]pyrazin-3-yl}benzamide] was run?
**A.** Its IC50 is 22 nM.

**Q.** With `O=C(NC1CC1)c1ccc(-c2cnc3c(NCCCCO)nc(C#CC4(O)CCCC4)cn23)cc1` [Example 9, N-cyclopropyl-4-{8-[(4-hydroxybutyl)amino]-6-[(1-hydroxycyclopentyl)ethynyl]imidazo[1,2-a]pyrazin-3-yl}benzamide] as the compound, how does the IC50 read?
**A.** Its IC50 is 10 nM.

**Q.** With `CC(C)(O)CNc1nc(C#CCO)cn2c(-c3ccc(C(=O)NC4CC4)cc3)cnc12` [Example 10, N-cyclopropyl-4-{8-[(2-hydroxy-2-methylpropyl)amino]-6-(3-hydroxyprop-1-yn-1-yl)imidazo[1,2-a]pyrazin-3-yl}benzamide] as the compound, how does the IC50 read?
**A.** The IC50 was 38 nM.

**Q.** Which IC50 does the source give for `COc1cc(C(=O)NC2CC2)ccc1-c1cnc2c(NCCCN)nc(C#CCO)cn12` [Example 11, 4-{8-[(3-Aminopropyl)amino]-6-(3-hydroxyprop-1-yn-1-yl)imidazo[1,2-a]pyrazin-3-yl}-N-cyclopropyl-3-methoxybenzamide] here?
**A.** Its IC50 is 993 nM.

**Q.** For `Cc1cc(-c2cnc3c(NCC(C)C)nc(C#CCO)cn23)ccc1C(=O)NC1CC1` [Example 49, N-cyclopropyl-4-{6-(3-hydroxyprop-1-yn-1-yl)-8-[(2-methylpropyl)amino]imidazo[1,2-a]pyrazin-3-yl}-2-methylbenzamide], which IC50 is on record?
**A.** The IC50 was 14 nM.

**Q.** Which IC50 does the source give for `OCC#Cc1cn2c(-c3ccc(-c4cnc(C5CC5)[nH]4)cc3)cnc2c(NC[C@H](O)CO)n1` [Example 50, (2S)-3-({3-[4-(2-cyclopropyl-1H-imidazol-5-yl)phenyl]-6-(3-hydroxyprop-1-yn-1-yl)imidazo[1,2-a]pyrazin-8-yl}amino)propane-1,2-diol] here?
**A.** The IC50 was 130 nM.

**Q.** For `OCC#Cc1cn2c(-c3ccc(-c4cnc(C5CC5)[nH]4)cc3)cnc2c(NCCCC(F)(F)F)n1` [Example 51, 3-{3-[4-(2-Cyclopropyl-1H-imidazol-5-yl)phenyl]-8-[(4,4,4-trifluorobutyl)amino]imidazo[1,2-a]pyrazin-6-yl}prop-2-yn-1-ol], which IC50 is on record?
**A.** The IC50 was 15 nM.

**Q.** For `C=C(C)CNc1nc(C#CCO)cn2c(-c3ccc(-c4cnc(C5CC5)[nH]4)cc3)cnc12` [Example 52, 3-{3-[4-(2-Cyclopropyl-1H-imidazol-5-yl)phenyl]-8-[(2-methylprop-2-en-1-yl)amino]imidazo[1,2-a]pyrazin-6-yl}prop-2-yn-1-ol], which IC50 is on record?
**A.** Its IC50 is 13 nM.

**Q.** Which IC50 does the source give for `C=CCNc1nc(C#CCO)cn2c(-c3ccc(-c4cnc(C5CC5)[nH]4)cc3)cnc12` [Example 53, 3-{8-(Allylamino)-3-[4-(2-cyclopropyl-1H-imidazol-5-yl)phenyl]imidazo[1,2-a]pyrazin-6-yl}prop-2-yn-1-ol] here?
**A.** Its IC50 is 18 nM.

**Q.** Which IC50 does the source give for `CC(C)CNc1nc(C#CCO)cn2c(-c3ccc(-c4cnc(C5CC5)[nH]4)cc3)cnc12` [Example 54, 3-{3-[4-(2-Cyclopropyl-1H-imidazol-5-yl)phenyl]-8-(isobutylamino)imidazo[1,2-a]pyrazin-6-yl}prop-2-yn-1-ol] here?
**A.** The IC50 was 8.4 nM.

**Q.** `CC(C)CNc1nc(C#CCO)cn2c(-c3cccc(-c4cnc(C5CC5)[nH]4)c3)cnc12` [Example 55, 3-{3-[3-(2-Cyclopropyl-1H-imidazol-5-yl)phenyl]-8-(isobutylamino)imidazo[1,2-a]pyrazin-6-yl}prop-2-yn-1-ol] was tested. Which IC50 did it give?
**A.** The IC50 was 520 nM.

**Q.** How did the IC50 turn out when `OCC#Cc1cn2c(-c3ccc(-c4cnc(C5CC5)[nH]4)cc3)cnc2c(NCCCCO)n1` [Example 56, 4-({3-[4-(2-Cyclopropyl-1H-imidazol-5-yl)phenyl]-6-(3-hydroxyprop-1-yn-1-yl)imidazo[1,2-a]pyrazin-8-yl}amino)butan-1-ol] was run?
**A.** Its IC50 is 23 nM.

**Q.** `OCC#Cc1cn2c(-c3ccc(-c4cnc(C5CC5)[nH]4)cc3)cnc2c(NCCC(F)(F)F)n1` [Example 57, 3-{3-[4-(2-Cyclopropyl-1H-imidazol-5-yl)phenyl]-8-[(3,3,3-trifluoropropyl)amino]imidazo[1,2-a]pyrazin-6-yl}prop-2-yn-1-ol] was tested. Which IC50 did it give?
**A.** The IC50 was 7.1 nM.

**Q.** How did the IC50 turn out when `OCC#Cc1cn2c(-c3ccc(-c4cnc(C5CC5)[nH]4)cc3)cnc2c(NCC2CCC2)n1` [Example 58, 3-{8-[(Cyclobutylmethyl)amino]-3-[4-(2-cyclopropyl-1H-imidazol-5-yl)phenyl]imidazo[1,2-a]pyrazin-6-yl}prop-2-yn-1-ol] was run?
**A.** The IC50 was 5.3 nM.

**Q.** With `OCC#Cc1cn2c(-c3ccc(-c4cnc(C5CC5)[nH]4)cc3)cnc2c(NCCCO)n1` [Example 59, 3-{3-[4-(2-Cyclopropyl-1H-imidazol-5-yl)phenyl]-8-[(3-hydroxypropyl)amino]imidazo[1,2-a]pyrazin-6-yl}prop-2-yn-1-ol] as the compound, how does the IC50 read?
**A.** Its IC50 is 53 nM.

**Q.** With `O=S1(=O)CCN(CC#Cc2cn3c(-c4ccc(-c5cnc(C6CC6)[nH]5)cc4)cnc3c(NCCC(F)(F)F)n2)CC1` [Example 61, 3-[4-(2-cyclopropyl-1H-imidazol-5-yl)phenyl]-6-[3-(1,1-dioxidothiomorpholin-4-yl)prop-1-yn-1-yl]-N-(3,3,3-trifluoropropyl)imidazo[1,2-a]pyrazin-8-amine] as the compound, how does the IC50 read?
**A.** The IC50 was 6.8 nM.

**Q.** With `Cc1cc(-c2cnc3c(NCCC(F)(F)F)nc(C#CCN4CCS(=O)(=O)CC4)cn23)ccc1C(=O)NC1CC1` [Example 62, N-cyclopropyl-4-{6-[3-(1,1-dioxidothiomorpholin-4-yl)prop-1-yn-1-yl]-8-[(3,3,3-trifluoropropyl)amino]imidazo[1,2-a]pyrazin-3-yl}-2-methylbenzamide] as the compound, how does the IC50 read?
**A.** The IC50 was 4.2 nM.

**Q.** For `C#Cc1cn2c(-c3ccc(C(=O)NC)c(C)c3)cnc2c(NCCC(F)(F)F)n1` [Example 63, 4-{6-Ethynyl-8-[(3,3,3-trifluoropropyl)amino]imidazo[1,2-a]pyrazin-3-yl}-N,2-dimethylbenzamide], which IC50 is on record?
**A.** Its IC50 is 135 nM.

**Q.** How did the IC50 turn out when `C#Cc1cn2c(-c3ccc(C(=O)NCC)c(C)c3)cnc2c(NCCC(F)(F)F)n1` [Example 64, N-ethyl-4-{6-ethynyl-8-[(3,3,3-trifluoropropyl)amino]imidazo[1,2-a]pyrazin-3-yl}-2-methylbenzamide] was run?
**A.** The IC50 was 120 nM.

**Q.** With `C#Cc1cn2c(-c3ccc(C(=O)NCC(F)F)c(C)c3)cnc2c(NCCC(F)(F)F)n1` [Example 65, N-(2,2-difluoroethyl)-4-{6-ethynyl-8-[(3,3,3-trifluoropropyl)amino]imidazo[1,2-a]pyrazin-3-yl}-2-methylbenzamide] as the compound, how does the IC50 read?
**A.** Its IC50 is 215 nM.

**Q.** `C#Cc1cn2c(-c3ccc(C(=O)NC4(C)CC4)c(C)c3)cnc2c(NCCC(F)(F)F)n1` [Example 66, 4-{6-ethynyl-8-[(3,3,3-trifluoropropyl)amino]imidazo[1,2-a]pyrazin-3-yl}-2-methyl-N-(1-methylcyclopropyl)benzamide] was tested. Which IC50 did it give?
**A.** Its IC50 is 155 nM.

**Q.** `C#Cc1cn2c(-c3ccc(C(=O)NC4(C#N)CC4)c(C)c3)cnc2c(NCCC(F)(F)F)n1` [Example 67, N-(1-cyanocyclopropyl)-4-{6-ethynyl-8-[(3,3,3-trifluoropropyl)amino]imidazo[1,2-a]pyrazin-3-yl}-2-methylbenzamide] was tested. Which IC50 did it give?
**A.** The IC50 was 165 nM.

**Q.** How did the IC50 turn out when `C#Cc1cn2c(-c3ccc(C(=O)NC4(OC)CC4)c(C)c3)cnc2c(NCCC(F)(F)F)n1` [Example 68, 4-{6-ethynyl-8-[(3,3,3-trifluoropropyl)amino]imidazo[1,2-a]pyrazin-3-yl}-N-(1-methoxycyclopropyl)-2-methylbenzamide] was run?
**A.** Its IC50 is 305 nM.

**Q.** Which IC50 does the source give for `CNC(=O)c1ccc(-c2cnc3c(NCCC(F)(F)F)nc(C#CCO)cn23)cc1C` [Example 70, 4-{6-(3-Hydroxyprop-1-yn-1-yl)-8-[(3,3,3-trifluoropropyl)amino]imidazo[1,2-a]pyrazin-3-yl}-N,2-dimethylbenzamide] here?
**A.** Its IC50 is 69 nM.

**Q.** `CCNC(=O)c1ccc(-c2cnc3c(NCCC(F)(F)F)nc(C#CCO)cn23)cc1C` [Example 71, N-ethyl-4-{6-(3-hydroxyprop-1-yn-1-yl)-8-[(3,3,3-trifluoropropyl)amino]imidazo[1,2-a]pyrazin-3-yl}-2-methylbenzamide] was tested. Which IC50 did it give?
**A.** The IC50 was 150 nM.

**Q.** Which IC50 does the source give for `Cc1cc(-c2cnc3c(NCCC(F)(F)F)nc(C#CCO)cn23)ccc1C(=O)NCC(F)F` [Example 72, N-(2,2-difluoroethyl)-4-{6-(3-hydroxyprop-1-yn-1-yl)-8-[(3,3,3-trifluoropropyl)amino]imidazo[1,2-a]pyrazin-3-yl}-2-methylbenzamide] here?
**A.** The IC50 was 130 nM.

**Q.** Which IC50 does the source give for `Cc1cc(-c2cnc3c(NCCC(F)(F)F)nc(C#CCO)cn23)ccc1C(=O)NC1(C)CC1` [Example 73, 4-{6-(3-hydroxyprop-1-yn-1-yl)-8-[(3,3,3-trifluoropropyl)amino]imidazo[1,2-a]pyrazin-3-yl}-2-methyl-N-(1-methylcyclopropyl)benzamide] here?
**A.** Its IC50 is 120 nM.

**Q.** With `Cc1cc(-c2cnc3c(NCCC(F)(F)F)nc(C#CCO)cn23)ccc1C(=O)NC1(C#N)CC1` [Example 74, N-(1-cyanocyclopropyl)-4-{6-(3-hydroxyprop-1-yn-1-yl)-8-[(3,3,3-trifluoropropyl)amino]imidazo[1,2-a]pyrazin-3-yl}-2-methylbenzamide] as the compound, how does the IC50 read?
**A.** The IC50 was 98 nM.
